# Measurements: ChEMBL document CHEMBL3044636, “Effectiveness of five insecticides for the control of adults and young stages of Cacopsylla melanoneura (Förster) (Hemiptera: Psyllidae) in a semi-field trial” (2010)
# Activity calls are given as the source filed them. The rule behind the calls is not given here.
# Key:
# [1] = system: Cacopsylla melanoneura; experiment: Insecticidal activity against young stage of Cacopsylla melanoneura in apple plant assessed as mortality at 300 g/ha treated for 1 hr measured after 7 days relative to control; type: functional
# [2] = system: Cacopsylla melanoneura; experiment: Insecticidal activity against adult of Cacopsylla melanoneura in apple plant assessed as reduction of progeny per female at 300 g/ha treated for 1 hr measured after 7 days; type: functional, organism-based
# [3] = system: Cacopsylla melanoneura; experiment: Insecticidal activity against young stage of Cacopsylla melanoneura in apple plant assessed as mortality at 300 g/ha treated for 14 days measured after 7 days relative to control; type: functional
# [4] = system: Cacopsylla melanoneura; experiment: Insecticidal activity against adult of Cacopsylla melanoneura in apple plant assessed as overwintered female mortality at 300 g/ha treated for 1 hr measured after 1 day relative to control; type: functional
# [5] = system: Cacopsylla melanoneura; experiment: Insecticidal activity against adult of Cacopsylla melanoneura in apple plant assessed as overwintered female mortality at 300 g/ha treated for 7 days measured after 1 day relative to control; type: functional
# [6] = system: Cacopsylla melanoneura; experiment: Insecticidal activity against adult of Cacopsylla melanoneura in apple plant assessed as reduction of progeny per female at 300 g/ha treated for 7 days measured after 7 days; type: functional, organism-based
# [7] = system: Cacopsylla melanoneura; experiment: Insecticidal activity against adult of Cacopsylla melanoneura in apple plant assessed as overwintered female mortality at 300 g/ha treated for 14 days measured after 3 days relative to control; type: functional
# [8] = system: Cacopsylla melanoneura; experiment: Insecticidal activity against young stage of Cacopsylla melanoneura in apple plant assessed as mortality at 300 g/ha treated for 7 days measured after 7 days relative to control; type: functional
# [9] = system: Cacopsylla melanoneura; experiment: Insecticidal activity against adult of Cacopsylla melanoneura in apple plant assessed as overwintered female mortality at 300 g/ha treated for 14 days measured after 1 day relative to control; type: functional
# [10] = system: Cacopsylla melanoneura; experiment: Insecticidal activity against adult of Cacopsylla melanoneura in apple plant assessed as overwintered female mortality at 300 g/ha treated for 7 days measured after 3 days relative to control; type: functional
# [11] = system: Cacopsylla melanoneura; experiment: Insecticidal activity against adult of Cacopsylla melanoneura in apple plant assessed as overwintered female mortality at 300 g/ha treated for 1 hr measured after 3 days relative to control; type: functional
# [12] = system: Cacopsylla melanoneura; experiment: Insecticidal activity against adult of Cacopsylla melanoneura in apple plant assessed as reduction of progeny per female at 300 g/ha treated for 14 days measured after 7 days; type: functional, organism-based
# [13] = system: Cacopsylla melanoneura; experiment: Insecticidal activity against adult of Cacopsylla melanoneura in apple plant assessed as reduction of progeny per female at 135 g/ha treated for 7 days measured after 7 days; type: functional, organism-based
# [14] = system: Cacopsylla melanoneura; experiment: Insecticidal activity against adult of Cacopsylla melanoneura in apple plant assessed as overwintered female mortality at 135 g/ha treated for 1 hr measured after 1 day relative to control; type: functional
# [15] = system: Cacopsylla melanoneura; experiment: Insecticidal activity against adult of Cacopsylla melanoneura in apple plant assessed as overwintered female mortality at 135 g/ha treated for 14 days measured after 3 days relative to control; type: functional
# [16] = system: Cacopsylla melanoneura; experiment: Insecticidal activity against young stage of Cacopsylla melanoneura in apple plant assessed as mortality at 135 g/ha treated for 14 days measured after 7 days relative to control; type: functional
# [17] = system: Cacopsylla melanoneura; experiment: Insecticidal activity against adult of Cacopsylla melanoneura in apple plant assessed as overwintered female mortality at 135 g/ha treated for 1 hr measured after 3 days relative to control; type: functional
# [18] = system: Cacopsylla melanoneura; experiment: Insecticidal activity against young stage of Cacopsylla melanoneura in apple plant assessed as mortality at 135 g/ha treated for 7 days measured after 7 days relative to control; type: functional
# [19] = system: Cacopsylla melanoneura; experiment: Insecticidal activity against adult of Cacopsylla melanoneura in apple plant assessed as overwintered female mortality at 135 g/ha treated for 7 days measured after 1 day relative to control; type: functional
# [20] = system: Cacopsylla melanoneura; experiment: Insecticidal activity against adult of Cacopsylla melanoneura in apple plant assessed as reduction of progeny per female at 135 g/ha treated for 1 hr measured after 7 days; type: functional, organism-based
# [21] = system: Cacopsylla melanoneura; experiment: Insecticidal activity against adult of Cacopsylla melanoneura in apple plant assessed as reduction of progeny per female at 135 g/ha treated for 14 days measured after 7 days; type: functional, organism-based
# [22] = system: Cacopsylla melanoneura; experiment: Insecticidal activity against young stage of Cacopsylla melanoneura in apple plant assessed as mortality at 135 g/ha treated for 1 hr measured after 7 days relative to control; type: functional
# [23] = system: Cacopsylla melanoneura; experiment: Insecticidal activity against adult of Cacopsylla melanoneura in apple plant assessed as overwintered female mortality at 135 g/ha treated for 14 days measured after 1 day relative to control; type: functional
# [24] = system: Cacopsylla melanoneura; experiment: Insecticidal activity against adult of Cacopsylla melanoneura in apple plant assessed as overwintered female mortality at 135 g/ha treated for 7 days measured after 3 days relative to control; type: functional
# [25] = system: Cacopsylla melanoneura; experiment: Insecticidal activity against young stage of Cacopsylla melanoneura in apple plant assessed as mortality at 787.5 g/ha treated for 1 hr measured after 7 days relative to control; type: functional
# [26] = system: Cacopsylla melanoneura; experiment: Insecticidal activity against young stage of Cacopsylla melanoneura in apple plant assessed as mortality at 787.5 g/ha treated for 7 days measured after 7 days relative to control; type: functional
# [27] = system: Cacopsylla melanoneura; experiment: Insecticidal activity against adult of Cacopsylla melanoneura in apple plant assessed as overwintered female mortality at 787.5 g/ha treated for 1 hr measured after 1 day relative to control; type: functional
# [28] = system: Cacopsylla melanoneura; experiment: Insecticidal activity against adult of Cacopsylla melanoneura in apple plant assessed as overwintered female mortality at 787.5 g/ha treated for 7 days measured after 1 day relative to control; type: functional
# [29] = system: Cacopsylla melanoneura; experiment: Insecticidal activity against adult of Cacopsylla melanoneura in apple plant assessed as overwintered female mortality at 787.5 g/ha treated for 7 days measured after 3 days relative to control; type: functional
# [30] = system: Cacopsylla melanoneura; experiment: Insecticidal activity against adult of Cacopsylla melanoneura in apple plant assessed as reduction of progeny per female at 787.5 g/ha treated for 14 days measured after 7 days; type: functional, organism-based
# [31] = system: Cacopsylla melanoneura; experiment: Insecticidal activity against adult of Cacopsylla melanoneura in apple plant assessed as reduction of progeny per female at 787.5 g/ha treated for 1 hr measured after 7 days; type: functional, organism-based
# [32] = system: Cacopsylla melanoneura; experiment: Insecticidal activity against adult of Cacopsylla melanoneura in apple plant assessed as overwintered female mortality at 787.5 g/ha treated for 14 days measured after 1 day relative to control; type: functional
# [33] = system: Cacopsylla melanoneura; experiment: Insecticidal activity against adult of Cacopsylla melanoneura in apple plant assessed as reduction of progeny per female at 787.5 g/ha treated for 7 days measured after 7 days; type: functional, organism-based
# [34] = system: Cacopsylla melanoneura; experiment: Insecticidal activity against young stage of Cacopsylla melanoneura in apple plant assessed as mortality at 787.5 g/ha treated for 14 days measured after 7 days relative to control; type: functional
# [35] = system: Cacopsylla melanoneura; experiment: Insecticidal activity against adult of Cacopsylla melanoneura in apple plant assessed as overwintered female mortality at 787.5 g/ha treated for 14 days measured after 3 days relative to control; type: functional
# [36] = system: Cacopsylla melanoneura; experiment: Insecticidal activity against adult of Cacopsylla melanoneura in apple plant assessed as overwintered female mortality at 787.5 g/ha treated for 1 hr measured after 3 days relative to control; type: functional
smiles,measurement,setting,value
O=C(NC(=O)c1c(F)cccc1F)Nc1ccc(Cl)cc1 [DIFLUBENZURON],Activity,[1],98.3%
same,Activity,[2],Active
same,Activity,[3],86.7%
same,Activity,[4],20%
same,Activity,[5],30%
same,Activity,[6],Active
same,Activity,[7],63.3%
same,Activity,[8],100%
same,Activity,[9],46.7%
same,Activity,[10],56.7%
same,Activity,[11],56.7%
same,Activity,[12],Active
CCOc1ccc(C(C)(C)COCc2cccc(Oc3ccccc3)c2)cc1 [ETOFENPROX],Activity,[13],Active
same,Activity,[14],93.3%
same,Activity,[15],100%
same,Activity,[16],100%
same,Activity,[17],100%
same,Activity,[18],100%
same,Activity,[19],93.3%
same,Activity,[20],Active
same,Activity,[21],Active
same,Activity,[22],98.3%
same,Activity,[23],100%
same,Activity,[24],93.3%
CCOP(=S)(OCC)Oc1nc(Cl)c(Cl)cc1Cl [CHLORPYRIFOS],Activity,[25],98.3%
same,Activity,[26],100%
same,Activity,[27],100%
same,Activity,[28],100%
same,Activity,[29],100%
same,Activity,[30],Active
same,Activity,[31],Active
same,Activity,[32],93.3%
same,Activity,[33],Active
same,Activity,[34],100%
same,Activity,[35],93.3%
same,Activity,[36],100%
